{"source": "patent US8765702B2", "about": "“Composition and methods for modulating cell proliferation and cell death” (Rosetta Genomics Ltd., priority 2007, dated 2014)", "key": {"[1]": {"system": "Notch pathway in MCF7 cells", "test": "qRT-PCR of Notch pathway mRNAs (DLL1, Jag1, Notch1, Hey1)", "format": "cell-based, human", "method": "(D) MCF7 cells were transfected with scramble or anti-miR-34a LNA oligos. 24 h post-transfection, 20 μM Nutlin-3 was added to the half of the samples for additional 48 h. RNA extraction and analysis was as in (B).\n(§1) RNA quantification was performed by real-time qRT-PCR in an ABI PRISM 7300 Sequence Detection System (Applied Biosystems) with SYBR Green Master Mix (Applied Biosystems). For mRNA quantification, cDNA produced with random hexamers and MMLV reverse transcriptase (Promega) from 10 ng of total RNA was subjected to RT-PCR using super SYBR-green ready mix (Applied Biosystems) and specific DNA primers (Table 1 for the EST, Table 2 for p21, Hdm2, GAPDH and HPRT). For small RNAs (U6, 5S, microRNAs), 50 ng total RNA was converted to cDNA using specific primers for reverse transcription (Ambion) and MMLV reverse transcriptase. Relative expression levels were determined by real-time qRT-PCR using super SYBR-green ready mix and specific primers (Ambion). Quantification was done using standard curves. All reactions were performed in duplicate."}, "[2]": {"system": "Notch pathway in A172 cells", "test": "qRT-PCR of Notch pathway mRNAs (DLL1, Jag1, Notch1, Hey1)", "format": "cell-based", "settings": "72 hours after transfection; for mRNA levels of DLL1, Jag1 or Notch1: normalized to GAPDH", "method": "(B) A172 cells were transfected with either scrambled or anti-miR-34a LNA oligos. RNA was isolated 72 hours later, and subjected to qRT-PCR to determine relative levels of expression of DLL1, Jag1 and Notch1 (normalized to GAPDH).\n(C) A172 cells were transfected with pcDNA3-pm34a-EST-MUT (MUT) or pcDNA3-pm34a-EST (EST). RNA extraction and analysis was as in (B).\nas §1\nA complementary, opposite effect on Hey1 expression was seen when miR-34a was over-expressed in A172 cells."}, "U2OS cells": {"system": "U2OS cells", "test": "Apoptosis by microscopy and FACS-based sub-G1 DNA content", "format": "cell-based, human"}, "[3]": {"system": "EST-Prom-luc (miR-34a putative promoter)", "test": "Dual luciferase assay with EST-Prom-luc in HCT116 cells", "format": "cell-based, human", "settings": "HCT116 control (siLacZ) cells, 5-FU for 16 hours"}, "[4]": {"system": "p53 binding to the pm34a-EST p53BS", "test": "Chromatin immunoprecipitation (ChIP)", "format": "cell-based, human", "settings": "HCT116 cells, 50 μg/ml 5-FU for 16 hours", "method": "(A) HCT116 cells stably expressing shRNA specific for p53 (sip53) or for LacZ (siLacZ) were either left untreated or treated for 16 hours with 50 μg/ml 5-FU, and then subjected to ChIP analysis with antibodies directed against p53 or HA as a control. The precipitated DNA was subjected to quantitative real-time PCR analysis with primers spanning the 5′ p53BS of the p21 gene, the putative p53BS of the pm34a-EST, or the GAPDH gene as a negative control. (B) Schematic representation of the DNA fragment (thick bar) cloned into the luciferase reporter plasmid. The positions of the p53BS and exons 1 and 2 of the pm34a-EST are also indicated. (C) The putative promoter of the pm34a-EST was cloned upstream to the firefly luciferase reporter gene in the pGL3-basic vector to yield plasmid EST-Prom-luc. EST-Prom-luc was transfected into H1299 cells without or with the indicated amounts of p53 expression plasmid. Luciferase activity was then measured by the dual luciferase assay, and normalized for Renilla luciferase activity. […]\nChIP analysis was performed as described (Minsky, 2004), employing the CM1 p53-specific polyclonal antibody or anti-HA polyclonal antibody as a control. […] Quantification of precipitated DNA was preformed by real-time qPCR, using an ABI PRISM 7300 Sequence Detection System. […]"}, "[5]": {"system": "pm34a-EST, miR-34a and p21 mRNA in H1299-TS cells", "test": "qRT-PCR of p53-dependent induction in the presence of cycloheximide", "format": "cell-based, human", "settings": "H1299-TS cells shifted to 32° C., 80 nM CHX", "method": "(A) H1299 and 111299-TS cells were either left untreated or supplemented with 80 nM cycloheximide (CHX) for 30 min before being shifted to either 37° C. or 32° C. Cells were then incubated for the indicated time periods with continuous exposure to the drug. RNA was isolated and subjected to qRT-PCR analysis with primers specific for pm34a-EST. Values were normalized for HPRT in the same samples. (B) H1299-TS cells were processed essentially as in (A), except that CHX was added only where indicated. RNA was subjected to qRT-PCR with primers specific for mature miR-34a. Values were normalized for U6 RNA in the same samples. (C) The same RNA samples as in (B) were subjected to qRT-PCR analysis with primers specific for p21 mRNA. […]\nas §1, with “For small RNAs (U6, 5S, microRNAs), 50 ng total RNA was converted to cDNA using specific primers for reverse transcription (Ambion) and MMLV reverse transcriptase.” left out, “All reactions were performed in duplicate.” left out"}, "[6]": {"system": "p53 mRNA and p21 mRNA in U2OS cells", "test": "qRT-PCR analysis of p53 mRNA and p21 mRNA after Nutlin-3", "format": "cell-based, human", "settings": "20 μM Nutlin-3 for 48 h, normalized to HPRT", "method": "(A) HCT116 cells stably expressing shRNA against p53 (sip53) or LacZ (siLacZ) were either treated with 50 μg/ml 5-FU for 16 h or left untreated. […] total RNA from each sample was subjected to qRT-PCR analysis of p21 mRNA. Results were normalized to HPRT expression in the same samples. (B) U2OS cells stably expressing shRNA against p53 (sip53) or LacZ (siLacZ) were either treated with 20 μM Nutlin-3 for 48 h or left untreated. RNA from each sample was subjected to qRT-PCR analysis of p53 mRNA and p21 mRNA. […] The modest increase in p53 mRNA (1.8 fold) has not been further investigated. (C) Western blot analysis of 20 μg total protein extracted from parallel cultures treated as in (A). […]\nas §1, with “For small RNAs (U6, 5S, microRNAs), 50 ng total RNA was converted to cDNA using specific primers for reverse transcription (Ambion) and MMLV reverse transcriptase.” left out, “All reactions were performed in duplicate.” left out"}, "Bcl-2 mRNA": {"system": "Bcl-2 mRNA", "test": "Real-time PCR analysis of Bcl-2 mRNA", "format": "cell-based, human", "settings": "H1299 or U2OS cells, 100 nM pre-miR-34a RNA oligonucleotides, normalized to GAPDH mRNA", "method": "(§2) (A) H1299 or U2OS cells were transiently transfected with 100 nM control scrambled RNA (cont) or pre-miR-34a RNA oligonucleotides (pre-34a, Ambion) using siPORT NeoFX transfection reagent (Ambion). Three days post-transfection, cell extracts were prepared. 30 μg of total protein was subjected to SDS-15% polyacrylamide gel electrophoresis followed by Western blot analysis with antibodies directed against GAPDH (MAB374, Chemicon) and Bcl-2 (C-2, Santa Cruz). (B) Total RNA was extracted from identical cultures as in (A) using the mirVana miRNA isolation kit (Ambion). RNA was converted to cDNA using random hexamers and MMLV reverse transcriptase (Promega). cDNA obtained from 10 ng total RNA was subjected to real-time PCR analysis using specific primers for Bcl-2 mRNA (forward primer—5′-[…]-3′ (SEQ ID NO: 42), reverse primer—5′-ATCAAACAGAGGCCGCATG-3′ (SEQ ID NO: 43) and super SYBR-green ready mix (Applied Biosystems) in an ABI PRISM 7300 Sequence Detection System (Applied Biosystems). Bcl-2 mRNA levels were normalized relative to GAPDH mRNA (forward primer—5′-[…]-3′ (SEQ ID NO: 44), reverse primer—5′-AAAAGCAGCCCTGGTGACC-3′) (SEQ ID NO: 45) in the same samples. RU=relative units. (C) 200 ng of total RNA obtained from (B) was subjected to quantitative real-time RT-PCR using primers for mature miR-34a. Values were normalized relative to U6 RNA levels in the same samples. […]"}, "Bcl-2": {"system": "Bcl-2", "test": "Western blot analysis of Bcl-2 protein", "format": "cell-based, human", "settings": "H1299 or U2OS cells, 100 nM pre-miR-34a RNA oligonucleotides, three days post-transfection", "method": "as §2"}}, "data": [{"molecule": "5′-aacaaccagctaagacactgcca-3′ (antisense AACAACCAGCTAAGACACTGCCA; LNA-modified, pattern not given here) [LNA anti-miR-34a]", "values": [{"measurement": "expression of Hey1 following p53 activation", "setting": "[1]; 20 μM Nutlin-3 for 48 h", "result": "stronger effect"}, {"measurement": "expression of Hey1", "setting": "[1]; versus scrambled LNA", "result": "up-regulation"}, {"measurement": "mRNA levels of DLL1, Jag1 or Notch1", "setting": "[1]; versus scrambled LNA", "result": "no effect"}, {"measurement": "expression of Hey1", "setting": "[2]", "result": "up-regulation"}, {"measurement": "mRNA levels of DLL1, Jag1 or Notch1", "setting": "[2]", "result": "no effect"}, {"measurement": "protection from apoptosis in p53 knockdown cells", "setting": "U2OS cells; U2OS cells stably expressing p53 shRNA (sip53)", "result": "not observed"}, {"measurement": "spontaneous apoptosis", "setting": "U2OS cells; U2OS cells, 100 nM LNA, versus scrambled oligonucleotide", "result": "decrease in spontaneous apoptosis"}, {"measurement": "apoptosis due to Nutlin-3 treatment", "setting": "U2OS cells; U2OS siLacZ cells, 100 nM LNA with 20 μM Nutlin-3 for 48 hours", "result": "partial protection"}]}, {"molecule": "O=c1[nH]cc(F)c(=O)[nH]1", "note": "[5-FU, 5 fluorouracil]", "values": [{"measurement": "luciferase activity", "setting": "[3]", "result": "nearly twofold increase"}, {"measurement": "p53 binding to the pm34a-EST p53BS", "setting": "[4]", "result": "further augmented"}]}, {"molecule": "C[C@@H]1C[C@@H]([C@H](O)CC2CC(=O)NC(=O)C2)C(=O)[C@@H](C)C1", "note": "[CHX, cycloheximide]", "values": [{"measurement": "induction of pm34a-EST or mature miR-34a", "setting": "[5]", "result": "did not prevent the induction"}, {"measurement": "p21 mRNA induction", "setting": "[5]", "result": "nor did it affect"}]}, {"molecule": "COc1ccc(C2=N[C@@H](c3ccc(Cl)cc3)[C@@H](c3ccc(Cl)cc3)N2C(=O)N2CCNC(=O)C2)c(OC(C)C)c1", "note": "[Nutlin-3]", "values": [{"measurement": "Jag1 and Notch1 mRNA levels", "setting": "[1]; 20 μM Nutlin-3 for 48 h", "result": "induction"}, {"measurement": "apoptosis", "setting": "U2OS cells; U2OS cells, 20 μM Nutlin-3 for 48 hours", "result": "enhanced apoptosis"}, {"measurement": "p21 mRNA increase", "setting": "[6]", "result": 10.3, "unit": "fold"}, {"measurement": "p53 mRNA increase", "setting": "[6]", "result": 1.8, "unit": "fold"}]}, {"molecule": "miR-34a: microRNA SEQ ID NO: 1; overexpressed via pcDNA3-pm34a-EST (A172) or pre-miR-34a RNA oligonucleotides, Ambion (Bcl-2 study) (UGGCAGUGUCUUAGCUGGUUGUU; listed as RNA, chemistry not fully specified; listed as Homo sapiens)", "values": [{"measurement": "expression of Hey1", "setting": "[2]", "result": "reduction in Hey1 mRNA"}, {"measurement": "mRNA levels of DLL1, Jag1 or Notch1", "setting": "[2]", "result": "absence of any change"}, {"measurement": "Bcl-2 mRNA", "setting": "Bcl-2 mRNA", "result": "without a measurable decrease"}, {"measurement": "Bcl-2 protein", "setting": "Bcl-2", "result": "decreased"}]}]}
